Earlier results as cited in US20170239173A1, “TRANSDERMAL ABSORPTION ENHANCER AND TRANSDERMAL ABSORPTION ENHANCEMENT AID” (ASAHI KASEI KABUSHIKI KAISHA, priority 2014, published 2017).
Values joined by “and” are separate entries in the source; they are usually repeats but may differ in a detail not shown here. Equal values may be shown once.

Conditions: partition coefficient between water and 1-octanol; cited from earlier work

N[C@H]1C(O)O[C@H](CO)[C@@H](O)[C@@H]1O (stereo partly drawn) [D-glucosamine]
Log P: −2.8

CC(C)(S)[C@@H](N)C(=O)O [D-penicillamine]
Log P: −1.8

CCCCCCCCCCCCCC(=O)OC(C)C [IPM, isopropyl myristate]
Log P: 7.2

CC[C@H](C)[C@H](N)C(=O)O [L-Isoleucine]
Log P: (LogP = −3.69)

O=C1O[C@H]([C@@H](O)CO)C(O)=C1O [L-ascorbic acid]
Log P: −1.6

C[N+](C)(C)C[C@H](O)CC(=O)[O-] [L-carnitine]
Log P: −0.2

N[C@@H](CS)C(=O)O [L-cysteine]
Log P: −2.5

CC(=O)N[C@H]1C(O)O[C@H](CO)[C@@H](O)[C@@H]1O (stereo partly drawn) [N-acetyl-D-glucosamine]
Log P: −1.7

CCCCCCCC(=O)OCC(COC(=O)CCCCCCC)OC(=O)CCCCCCC [Tricaprylin, glycerin tricaprylate]
Log P: 8.9

CC(=O)Nc1ccc(CC(=O)O)cc1 [actarit]
Log P: 0.4

CC(=O)SC[C@@H](C)C(=O)N1CCC[C@H]1C(=O)N[C@@H](Cc1ccccc1)C(=O)O [alacepril]
Log P: 2.1

C[C@H](N)C(=O)O [alanine]
Log P: −3

NC(=O)NC1NC(=O)NC1=O (stereo not drawn) [allantoin]
Log P: −2.2

CCOC(=O)C1=C(COCCN)NC(C)=C(C(=O)OC)C1c1ccccc1Cl (stereo not drawn) [amlodipine]
Log P: 3

Nc1cc(-c2ccncc2)c[nH]c1=O [amrinone]
Log P: −0.2

OC[C@H]1O[C@@H](Oc2ccc(O)cc2)[C@H](O)[C@@H](O)[C@@H]1O [arbutin]
Log P: −0.6

CC(C)(C)NCC(O)CSc1nc(-c2ccc(C(N)=O)s2)cs1 (stereo not drawn) [arotinolol]
Log P: 2.3

O=C(O)CCCCCCCC(=O)O [azelaic acid]
Log P: 1.6

COc1ccc(CCNCC(O)COc2cccc(C)c2)cc1OC (stereo not drawn) [bevantolol]
Log P: 3

O=C(O)CCCC[C@@H]1SC[C@@H]2NC(=O)N[C@@H]21 [biotin]
Log P: 0.3

CCCC(=O)N1CCCN(c2nc(N)c3cc(OC)c(OC)cc3n2)CC1 [bunazosin]
Log P: 2.2

C[C@H](CS)C(=O)N1CCC[C@H]1C(=O)O [captopril]
Log P: 0.3

C[C@@](Cc1ccc(O)c(O)c1)(NN)C(=O)O [carbidopa]
Log P: −2.2

NS(=O)(=O)c1cc(C2(O)NC(=O)c3ccccc32)ccc1Cl (stereo not drawn) [chlorthalidone]
Log P: 0.9

CCOC(=O)[C@H](CCc1ccccc1)N[C@H]1CCCN2CCC[C@@H](C(=O)O)N2C1=O [cilazapril]
Log P: 0.6

Clc1cccc(Cl)c1N=C1NCCN1 [clonidine]
Log P: 1.6

CCOC(=O)[C@H](CCc1ccccc1)N[C@@H](C)C(=O)N(CC(=O)O)C1Cc2ccccc2C1 [delapril]
Log P: 1.7

COc1ccc(CCNC[C@H](O)c2ccc(O)cc2)cc1OC [denopamine]
Log P: 1.8

CCOC(=O)Oc1ccc(CCNC(=O)[C@H](CCSC)NC(C)=O)cc1OC(=O)OCC [docarpamine]
Log P: 2.9

NCCc1ccc(O)c(O)c1 [dopamine]
Log P: −1

CCOC(=O)[C@H](CCc1ccccc1)N[C@@H](C)C(=O)N1CCC[C@H]1C(=O)O [enalapril]
Log P: −0.1

COc1cc(C)nc(-n2nc(C)cc2OC)n1 [epirizole]
Log P: 1.3

COC(=O)[C@@H]1CC2=CC(=O)CC[C@]2(C)[C@@]23O[C@@H]2C[C@@]2(C)[C@@H](CC[C@@]24CCC(=O)O4)[C@H]13 [eplerenone]
Log P: 1.4

CC(O)(P(=O)(O)O)P(=O)(O)O [etidronic acid]
Log P: −3.7

NC(N)=Nc1nc(CSCCC(N)=NS(N)(=O)=O)cs1 [famotidine]
Log P: −0.6

N[C@@H](CCC(=O)N[C@@H](CS)C(=O)NCC(=O)O)C(=O)O [glutathione]
Log P: −4.5

COc1ccccc1O [guaiacol]
Log P: 1.3

N=C(N)NC(=O)Cc1c(Cl)cccc1Cl [guanfacine]
Log P: 2

N[C@@H](Cc1c[nH]cn1)C(=O)O [histidine]
Log P: −3.2

NNc1nncc2ccccc12 [hydralazine]
Log P: 0.7

Oc1ccc(O)cc1 [hydroquinone]
Log P: −0.6

CCOC(=O)[C@H](CCc1ccccc1)N[C@@H](C)C(=O)N1C(=O)N(C)C[C@H]1C(=O)O [imidapril]
Log P: −0.7

CC(C)NCC(O)c1ccc(O)c(O)c1 (stereo not drawn) [isoprenaline]
Log P: −0.6

Cc1c(C(C)C)c(=O)n(-c2ccccc2)n1C [isopropylantipyrine]
Log P: 1.7

O[C@@H]1CO[C@H]2[C@@H]1OC[C@@H]2O [isosorbide]
Log P: −1.4

O=c1cc(CO)occ1O [kojic acid]
Log P: −0.9

O=C(C[S+]([O-])Cc1ccco1)NC/C=C\COc1cc(CN2CCCCC2)ccn1 (stereo not drawn) [lafutidine]
Log P: 1.4

Cc1c(OCC(F)(F)F)ccnc1C[S+]([O-])c1nc2ccccc2[nH]1 (stereo not drawn) [lansoprazole]
Log P: 2.8

Cc1oncc1C(=O)Nc1ccc(C(F)(F)F)cc1 [leflunomide]
Log P: 2.6

NCCCC[C@H](N[C@@H](CCc1ccccc1)C(=O)O)C(=O)N1CCC[C@H]1C(=O)O [lisinopril]
Log P: −2.9 and −3.0

Nc1cc(N2CCCCC2)nc(N)[n+]1[O-] [loniten]
Log P: 1.2

CN(CC1(C)CCCO1)S(=O)(=O)c1ccc(Cl)c(S(N)(=O)=O)c1 (stereo not drawn) [mefruside]
Log P: 0.9

C[C@H]1C[C@@H]2[C@H]([C@@H](O)C[C@@]3(C)[C@H]2CC[C@]3(O)C(=O)CO)[C@@]2(C)C=CC(=O)C=C12 [methylprednisolone]
Log P: 1.9

Cc1cc2c(cc1S(N)(=O)=O)S(=O)(=O)CCC2 [meticrane]
Log P: 0.5

Cc1[nH]c(=O)c(C#N)cc1-c1ccncc1 [milrinone]
Log P: 0

Nc1cc(N2CCCCC2)nc(N)[n+]1[O-] [minoxidil]
Log P: 1.2

O=C(O)c1cccnc1 [nicotinic acid]
Log P: 0.4

Cn1c(NCCN(CCO)CCCc2ccc([N+](=O)[O-])cc2)cc(=O)n(C)c1=O [nifekalant]
Log P: 1.1

CNC(=C[N+](=O)[O-])NCCSCc1csc(CN(C)C)n1 [nizatidine]
Log P: 1.6

CC(C)(CO)[C@@H](O)C(=O)NCCC(=O)O [pantothenic acid]
Log P: −1.1

CCC[C@H](N[C@@H](C)C(=O)N1[C@H](C(=O)O)C[C@@H]2CCCC[C@@H]21)C(=O)OCC [perindopril]
Log P: 0.9

Cc1ccc(N(CC2=NCCN2)c2cccc(O)c2)cc1 [phentolamine]
Log P: 2.6

Cc1cccc(C)c1NC(=O)CC12CCCN1CCC2 [pilsicainide]
Log P: 2.7

CN1CCN(CC(=O)N2c3ccccc3C(=O)Nc3cccnc32)CC1 [pirenzepine]
Log P: 0.1

CCN(CC)CCNC(=O)c1ccc(N)cc1 [procainamide]
Log P: 0.9

CCOC(=O)[C@H](CCc1ccccc1)N[C@@H](C)C(=O)N1Cc2ccccc2C[C@H]1C(=O)O [quinapril]
Log P: 1.2

OC[C@H]1O[C@H](OC[C@H]2O[C@H](O[C@]3(CO)O[C@H](CO)[C@@H](O)[C@@H]3O)[C@H](O)[C@@H](O)[C@@H]2O)[C@H](O)[C@@H](O)[C@H]1O [raffinose]
Log P: −5.8

O=C(NC(Cc1cc(=O)[nH]c2ccccc12)C(=O)O)c1ccc(Cl)cc1 (stereo not drawn) [rebamipide]
Log P: 2.4

Oc1cccc(O)c1 [resorcin]
Log P: 0.8
